Laboratory results reported in paper PMC12090182, “Repurposing of the RIPK1-Selective Benzo[1,4]oxazepin-4-one Scaffold for the Development of a Type III LIMK1/2 Inhibitor” (ACS Chemical Biology, 2025).

Test system: MRC-9 cells
Test: Multiplex high-content viability assessment
Format: cell-based
Conditions: human fibroblast
How it was run: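 HEK293T and U2OS cells (DMEM) and MRC-9 fibroblasts (EMEM) exposed to compounds at 1 and 10 μM. Live-cell confocal imaging of cell shape and fluorescence before and at 12, 24 and 48 h. Normalized to 0.1% DMSO; biological duplicates with SEM.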

[1] = 1 µM, 0 h, biological replicate 1
[2] = 1 µM, 0 h, biological replicate 2
[3] = 1 µM, 12 h, biological replicate 1
[4] = 1 µM, 12 h, biological replicate 2
[5] = 1 µM, 24 h, biological replicate 1
[6] = 1 µM, 24 h, biological replicate 2
[7] = 1 µM, 48 h, biological replicate 1
[8] = 1 µM, 48 h, biological replicate 2
[9] = 10 µM, 0 h, biological replicate 1
[10] = 10 µM, 0 h, biological replicate 2
[11] = 10 µM, 12 h, biological replicate 1
[12] = 10 µM, 12 h, biological replicate 2
[13] = 10 µM, 24 h, biological replicate 1
[14] = 10 µM, 24 h, biological replicate 2
[15] = 10 µM, 48 h, biological replicate 1
[16] = 10 µM, 48 h, biological replicate 2

Question: Which “Cell count normalized to cells treated with DMSO control” value (“Cell count normalized to cells treated” for short) [1] does the source give for `CC(C)C(=O)Nc1ncc(-c2cc(C(F)F)nn2-c2c(Cl)cccc2Cl)s1` [LIMKi3] here?
Answer: 1.034

Question: And the “Cell count per well” value [1]?
Answer: 155

Question: And the “Population Fragmented Nuclei (%)” value [1]?
Answer: 25.33%

Question: And the “Population Healthy Nuclei (%)” value [1]?
Answer: 53.33%

Question: And the “Population Pyknosed Nuclei (%)” value [1]?
Answer: 21.33%

Question: And the “Population apoptotic cell (%)” value [1]?
Answer: 34.38%

Question: What about the “Population cell that influence microtubule strucutre (%)” value [1] of the same compound?
Answer: 18.75%

Question: And the “Population with increased mitochondrial mass (%)” value [1]?
Answer: 7.50%

Question: What about the “Population with membrane disruption (%)” value [1] of the same compound?
Answer: 1.25%

Question: And the “Cell count normalized to cells treated” value [2]?
Answer: 0.869

Question: What about the “Cell count per well” value [2] of the same compound?
Answer: 155

Question: And the “Population Fragmented Nuclei (%)” value [2]?
Answer: 31.13%

Question: And the “Population Healthy Nuclei (%)” value [2]?
Answer: 41.06%

Question: What about the “Population Pyknosed Nuclei (%)” value [2] of the same compound?
Answer: 27.81%

Question: And the “Population apoptotic cell (%)” value [2]?
Answer: 38.10%

Question: What about the “Population cell that influence microtubule strucutre (%)” value [2] of the same compound?
Answer: 48.39%

Question: And the “Population with increased mitochondrial mass (%)” value [2]?
Answer: 11.29%

Question: And the “Population with membrane disruption (%)” value [2]?
Answer: 8.06%

Question: And the “Cell count normalized to cells treated” value [3]?
Answer: 0.9165

Question: And the “Cell count per well” value [3]?
Answer: 138

Question: What about the “Population Fragmented Nuclei (%)” value [3] of the same compound?
Answer: 20.00%

Question: And the “Population Healthy Nuclei (%)” value [3]?
Answer: 63.70%

Question: And the “Population Pyknosed Nuclei (%)” value [3]?
Answer: 16.30%

Question: And the “Population apoptotic cell (%)” value [3]?
Answer: 22.73%

Question: And the “Population cell that influence microtubule strucutre (%)” value [3]?
Answer: 25.58%

Question: What about the “Population with increased mitochondrial mass (%)” value [3] of the same compound?
Answer: 5.81%

Question: And the “Population with membrane disruption (%)” value [3]?
Answer: 1.16%

Question: What about the “Cell count normalized to cells treated” value [4] of the same compound?
Answer: 0.8765

Question: What about the “Cell count per well” value [4] of the same compound?
Answer: 146

Question: And the “Population Fragmented Nuclei (%)” value [4]?
Answer: 30.94%

Question: What about the “Population Healthy Nuclei (%)” value [4] of the same compound?
Answer: 44.60%

Question: And the “Population Pyknosed Nuclei (%)” value [4]?
Answer: 24.46%

Question: What about the “Population apoptotic cell (%)” value [4] of the same compound?
Answer: 35.29%

Question: And the “Population cell that influence microtubule strucutre (%)” value [4]?
Answer: 75.81%

Question: What about the “Population with increased mitochondrial mass (%)” value [4] of the same compound?
Answer: 11.29%

Question: And the “Population with membrane disruption (%)” value [4]?
Answer: 20.97%

Question: What about the “Cell count normalized to cells treated” value [5] of the same compound?
Answer: 0.9351

Question: And the “Cell count per well” value [5]?
Answer: 141

Question: And the “Population Fragmented Nuclei (%)” value [5]?
Answer: 15.83%

Question: And the “Population Healthy Nuclei (%)” value [5]?
Answer: 69.06%

Question: What about the “Population Pyknosed Nuclei (%)” value [5] of the same compound?
Answer: 15.11%

Question: And the “Population apoptotic cell (%)” value [5]?
Answer: 33.33%

Question: What about the “Population cell that influence microtubule strucutre (%)” value [5] of the same compound?
Answer: 33.33%

Question: What about the “Population with increased mitochondrial mass (%)” value [5] of the same compound?
Answer: 7.29%

Question: What about the “Population with membrane disruption (%)” value [5] of the same compound?
Answer: 0.00%

Question: And the “Cell count normalized to cells treated” value [6]?
Answer: 0.8553

Question: What about the “Cell count per well” value [6] of the same compound?
Answer: 141

Question: What about the “Population Fragmented Nuclei (%)” value [6] of the same compound?
Answer: 38.85%

Question: And the “Population Healthy Nuclei (%)” value [6]?
Answer: 41.73%

Question: What about the “Population Pyknosed Nuclei (%)” value [6] of the same compound?
Answer: 19.42%

Question: And the “Population apoptotic cell (%)” value [6]?
Answer: 40.74%

Question: What about the “Population cell that influence microtubule strucutre (%)” value [6] of the same compound?
Answer: 62.07%

Question: What about the “Population with increased mitochondrial mass (%)” value [6] of the same compound?
Answer: 12.07%

Question: What about the “Population with membrane disruption (%)” value [6] of the same compound?
Answer: 20.69%

Question: And the “Cell count normalized to cells treated” value [7]?
Answer: 0.9887

Question: And the “Cell count per well” value [7]?
Answer: 150

Question: And the “Population Fragmented Nuclei (%)” value [7]?
Answer: 26.21%

Question: What about the “Population Healthy Nuclei (%)” value [7] of the same compound?
Answer: 62.07%

Question: And the “Population Pyknosed Nuclei (%)” value [7]?
Answer: 11.72%

Question: And the “Population apoptotic cell (%)” value [7]?
Answer: 52.94%

Question: What about the “Population cell that influence microtubule strucutre (%)” value [7] of the same compound?
Answer: 31.11%

Question: And the “Population with increased mitochondrial mass (%)” value [7]?
Answer: 6.67%

Question: What about the “Population with membrane disruption (%)” value [7] of the same compound?
Answer: 0.00%

Question: And the “Cell count normalized to cells treated” value [8]?
Answer: 0.8351

Question: And the “Cell count per well” value [8]?
Answer: 136

Question: And the “Population Fragmented Nuclei (%)” value [8]?
Answer: 42.54%

Question: What about the “Population Healthy Nuclei (%)” value [8] of the same compound?
Answer: 45.52%

Question: What about the “Population Pyknosed Nuclei (%)” value [8] of the same compound?
Answer: 11.94%

Question: And the “Population apoptotic cell (%)” value [8]?
Answer: 37.50%

Question: And the “Population cell that influence microtubule strucutre (%)” value [8]?
Answer: 77.05%

Question: And the “Population with increased mitochondrial mass (%)” value [8]?
Answer: 14.75%

Question: What about the “Population with membrane disruption (%)” value [8] of the same compound?
Answer: 9.84%

Question: And the “Cell count normalized to cells treated” value [9]?
Answer: 1.054

Question: What about the “Cell count per well” value [9] of the same compound?
Answer: 158

Question: What about the “Population Fragmented Nuclei (%)” value [9] of the same compound?
Answer: 19.48%

Question: And the “Population Healthy Nuclei (%)” value [9]?
Answer: 62.99%

Question: And the “Population Pyknosed Nuclei (%)” value [9]?
Answer: 17.53%

Question: What about the “Population apoptotic cell (%)” value [9] of the same compound?
Answer: 44.44%

Question: And the “Population cell that influence microtubule strucutre (%)” value [9]?
Answer: 22.68%

Question: What about the “Population with increased mitochondrial mass (%)” value [9] of the same compound?
Answer: 9.28%

Question: And the “Population with membrane disruption (%)” value [9]?
Answer: 0.00%

Question: And the “Cell count normalized to cells treated” value [10]?
Answer: 1.02

Question: And the “Cell count per well” value [10]?
Answer: 182

Question: And the “Population Fragmented Nuclei (%)” value [10]?
Answer: 18.39%

Question: What about the “Population Healthy Nuclei (%)” value [10] of the same compound?
Answer: 59.77%

Question: And the “Population Pyknosed Nuclei (%)” value [10]?
Answer: 21.84%

Question: What about the “Population apoptotic cell (%)” value [10] of the same compound?
Answer: 50.00%

Question: And the “Population cell that influence microtubule strucutre (%)” value [10]?
Answer: 38.46%

Question: And the “Population with increased mitochondrial mass (%)” value [10]?
Answer: 6.73%

Question: What about the “Population with membrane disruption (%)” value [10] of the same compound?
Answer: 4.81%

Question: And the “Cell count normalized to cells treated” value [11]?
Answer: 1.2685

Question: And the “Cell count per well” value [11]?
Answer: 191

Question: What about the “Population Fragmented Nuclei (%)” value [11] of the same compound?
Answer: 21.91%

Question: And the “Population Healthy Nuclei (%)” value [11]?
Answer: 61.24%

Question: And the “Population Pyknosed Nuclei (%)” value [11]?
Answer: 16.85%

Question: And the “Population apoptotic cell (%)” value [11]?
Answer: 40.00%

Question: What about the “Population cell that influence microtubule strucutre (%)” value [11] of the same compound?
Answer: 92.66%

Question: And the “Population with increased mitochondrial mass (%)” value [11]?
Answer: 15.60%

Question: What about the “Population with membrane disruption (%)” value [11] of the same compound?
Answer: 0.92%

Question: What about the “Cell count normalized to cells treated” value [12] of the same compound?
Answer: 1.111

Question: And the “Cell count per well” value [12]?
Answer: 185

Question: And the “Population Fragmented Nuclei (%)” value [12]?
Answer: 27.68%

Question: And the “Population Healthy Nuclei (%)” value [12]?
Answer: 47.46%

Question: And the “Population Pyknosed Nuclei (%)” value [12]?
Answer: 24.86%

Question: What about the “Population apoptotic cell (%)” value [12] of the same compound?
Answer: 52.27%

Question: And the “Population cell that influence microtubule strucutre (%)” value [12]?
Answer: 92.86%

Question: And the “Population with increased mitochondrial mass (%)” value [12]?
Answer: 14.29%

Question: What about the “Population with membrane disruption (%)” value [12] of the same compound?
Answer: 21.43%

Question: And the “Cell count normalized to cells treated” value [13]?
Answer: 1.273

Question: And the “Cell count per well” value [13]?
Answer: 192

Question: And the “Population Fragmented Nuclei (%)” value [13]?
Answer: 24.02%

Question: And the “Population Healthy Nuclei (%)” value [13]?
Answer: 64.25%

Question: And the “Population Pyknosed Nuclei (%)” value [13]?
Answer: 11.73%

Question: And the “Population apoptotic cell (%)” value [13]?
Answer: 42.86%

Question: And the “Population cell that influence microtubule strucutre (%)” value [13]?
Answer: 93.04%

Question: What about the “Population with increased mitochondrial mass (%)” value [13] of the same compound?
Answer: 32.17%

Question: What about the “Population with membrane disruption (%)” value [13] of the same compound?
Answer: 1.74%

Question: And the “Cell count normalized to cells treated” value [14]?
Answer: 1.116

Question: What about the “Cell count per well” value [14] of the same compound?
Answer: 184

Question: And the “Population Fragmented Nuclei (%)” value [14]?
Answer: 31.58%

Question: What about the “Population Healthy Nuclei (%)” value [14] of the same compound?
Answer: 47.95%

Question: And the “Population Pyknosed Nuclei (%)” value [14]?
Answer: 20.47%

Question: And the “Population apoptotic cell (%)” value [14]?
Answer: 48.57%

Question: And the “Population cell that influence microtubule strucutre (%)” value [14]?
Answer: 92.68%

Question: And the “Population with increased mitochondrial mass (%)” value [14]?
Answer: 21.95%

Question: What about the “Population with membrane disruption (%)” value [14] of the same compound?
Answer: 6.10%

Question: And the “Cell count normalized to cells treated” value [15]?
Answer: 1.325

Question: And the “Cell count per well” value [15]?
Answer: 201

Question: And the “Population Fragmented Nuclei (%)” value [15]?
Answer: 25.53%

Question: What about the “Population Healthy Nuclei (%)” value [15] of the same compound?
Answer: 63.83%

Question: What about the “Population Pyknosed Nuclei (%)” value [15] of the same compound?
Answer: 10.64%

Question: What about the “Population apoptotic cell (%)” value [15] of the same compound?
Answer: 70.00%

Question: And the “Population cell that influence microtubule strucutre (%)” value [15]?
Answer: 98.33%

Question: What about the “Population with increased mitochondrial mass (%)” value [15] of the same compound?
Answer: 42.50%

Question: What about the “Population with membrane disruption (%)” value [15] of the same compound?
Answer: 0.83%

Question: And the “Cell count normalized to cells treated” value [16]?
Answer: 1.216

Question: And the “Cell count per well” value [16]?
Answer: 198

Question: And the “Population Fragmented Nuclei (%)” value [16]?
Answer: 37.50%

Question: And the “Population Healthy Nuclei (%)” value [16]?
Answer: 43.23%

Question: And the “Population Pyknosed Nuclei (%)” value [16]?
Answer: 19.27%

Question: What about the “Population apoptotic cell (%)” value [16] of the same compound?
Answer: 51.35%

Question: What about the “Population cell that influence microtubule strucutre (%)” value [16] of the same compound?
Answer: 90.36%

Question: What about the “Population with increased mitochondrial mass (%)” value [16] of the same compound?
Answer: 21.69%

Question: And the “Population with membrane disruption (%)” value [16]?
Answer: 12.05%
